What all share (format): cell-based
Common to all, as to settings: 10.0% saccharide, 1.0% yeast extract, 1.6% xanthan gum (dextrin 0.5%, starch none), pH 6.2, candle jar, 37° C.

Assay [1] deals with Gram-positive bacilli. As to the kind of experiment: Experiment Example 2: comparison of saccharides, specimen culture, Gram smear. From the text:
(§1) • (1)The preparation of the compositions: Different saccharides were used respectively to prepare the following compositions according to the methods mentioned above: glucose, fructose, galactose, mannose, maltose, sucrose, lactose, lactulose, mycose, cellobiose, melibiose, melitose, malto-oligosaccharide, isomaltooligosaccharide and fructooligosaccharide, dextrin, starch, and glycogen: • A. 5% glucose, 1.0% yeast extract, 1.6% xanthan gum, pH adjusted to 6.2; • B. 5% fructose, 1.0% yeast extract, 1.6% xanthan gum, pH adjusted to 6.2; • C. 5% galactose, 1.0% yeast extract, 1.6% xanthan gum, pH adjusted to 6.2; • D. 5% mannose, 1.0% yeast extract, 1.6% xanthan gum, pH adjusted to 6.2; • E. 10.0% maltose, 1.0% yeast extract, 1.6% xanthan gum, pH adjusted to 6.2; • F. 10.0% sucrose, 1.0% yeast extract, 1.6% xanthan gum, pH adjusted to 6.2; • G. 10.0% lactose, 1.0% yeast extract, 1.6% xanthan gum, pH adjusted to 6.2; • H. 10.0% lactulose, 1.0% yeast extract, 1.6% xanthan gum, pH adjusted to 6.2; • I. 10.0% cellobiose, 1.0% yeast extract, 1.6% xanthan gum, pH adjusted to 6.2; • J. 10.0% mycose, 1.0% yeast extract, 1.6% xanthan gum, pH adjusted to 6.2; • K. 10.0% melibiose, 1.0% yeast extract, 1.6% xanthan gum, pH adjusted to 6.2; • L. 10.0% melitose, 1.0% yeast extract, 1.6% xanthan gum, pH adjusted to 6.2; • M. 10.0% maltooligosaccharide, 1.0% yeast extract, 1.6% xanthan gum, pH adjusted to 6.2; • N. 10.0% isomaltooligosaccharide, 1.0% yeast extract, 1.6% xanthan gum, pH adjusted to 6.2; • O. 10.0% fructooligosaccharide, 1.0% yeast extract, 1.6% xanthan gum, pH adjusted to 6.2; • P. 10.0% dextrin, 1.0% yeast extract, 0.5% xanthan gum, pH adjusted to 6.2; • Q. 10.0% starch, 1.0% yeast extract, pH adjusted to 6.2; • R. 10.0% glycogen, 1.0% yeast extract, 1.6% xanthan gum, pH adjusted to 6.2. • (2)The preparation of the test tubes: The compositions prepared above were filled into test tubes, with each tube containing 5 ml, sterilized, and kept until use for experiment. • (3) Specimen suspension: Vaginal secretion was taken from one of the patients suffering from typical bacterial vagmosis with a cotton swab, then the swab was washed in 2 ml sterilized Trypcase-soy Broth immediately, and thus the specimen suspension was ready. […] Then the tubes were placed in a candle jar and cultivated at 37° C. After 24 hours and 48 hours' culture, culture samples were taken respectively from each of the tubes, then the Gram smears of the samples were observed and the pH values of culture samples were tested. […] Meanwhile the pH values in most of the composition tubes decreased to different levels. […] And maltose and sucrose exert better effect in promoting the growth of Gram-positive bacilli and the production of acids than that of the other kinds of oligosaccharides.

Assay [2] concerns Gram-positive cocci. The assay is described as above.
Description: as §1

The subject of assay [3] is Gram-negative cocci. The description is as above.
Description: as §1

Assay [4] deals with Gram-negative bacilli. The assay is described as above.
Description: as §1

Assay [5] has as its system vaginal secretion specimen of a patient suffering from typical bacterial vaginosis. Kind of assay: Experiment Example 2: pH of culture samples (production of acids).
Description: as §1

In the case of `OC[C@H]1O[C@H](OC[C@H]2O[C@H](O[C@]3(CO)O[C@H](CO)[C@@H](O)[C@@H]3O)[C@H](O)[C@@H](O)[C@@H]2O)[C@H](O)[C@@H](O)[C@H]1O` [Melitose, melitose], in assay [1], the “Bacteria G + b (Gram-positive bacilli), 24 hours-culture” value (from here on “Bacteria G + b … 24 hours-culture”) is recorded as “G + b, ++ (About 10-99 bacteria per field of vision under oil-immersion lens)” and the “Bacteria G + b (Gram-positive bacilli), 48 hours-culture” value (“Bacteria G + b … 48 hours-culture” below) was “G + b, +++ (About 100 bacteria or more per field vision under oil-immersion lens, even uncountable)”. For the same compound, in assay [2], the “Bacteria G + c (Gram-positive cocci), 24 hours-culture” value (shortened to “Bacteria G + c … 24 hours-culture”) is “G + c, + (1-9 bacteria per field of vision under oil-immersion lens)” and the “Bacteria G + c (Gram-positive cocci), 48 hours-culture” value (“Bacteria G + c … 48 hours-culture” for short) is “G + c, + (1-9 bacteria per field of vision under oil-immersion lens)”. Also, in assay [3], the “Bacteria G − c (Gram-negative cocci), 24 hours-culture” value (“Bacteria G − c … 24 hours-culture” below) was “G − c, + (1-9 bacteria per field of vision under oil-immersion lens)” and the “Bacteria G − c (Gram-negative cocci), 48 hours-culture” value (shortened to “Bacteria G − c … 48 hours-culture”) is listed as “G − c, − (No or less than one bacterium per field of version under oil-immersion lens)”. Also, in assay [4], the “Bacteria G − b (Gram-negative bacilli), 24 hours-culture” value (“Bacteria G − b … 24 hours-culture” for short) is on record as “G − b, + (1-9 bacteria per field of vision under oil-immersion lens)” and the “Bacteria G − b (Gram-negative bacilli), 48 hours-culture” value (“Bacteria G − b … 48 hours-culture” below) is given as “G − b, ++ (About 10-99 bacteria per field of vision under oil-immersion lens)”. In addition, in assay [5], the “pH, 24 hours-culture” value is 6.7 and the “pH, 48 hours-culture” value is recorded as 5.8.

Consider `OC[C@H]1O[C@H](O[C@H]2O[C@H](CO)[C@@H](O)[C@H](O)[C@H]2O)[C@H](O)[C@@H](O)[C@@H]1O` [Mycose, mycose], for which, in assay [1], the “Bacteria G + b … 24 hours-culture” value is given as “G + b, ++ (About 10-99 bacteria per field of vision under oil-immersion lens)” and the “Bacteria G + b … 48 hours-culture” value was “G + b, +++ (About 100 bacteria or more per field vision under oil-immersion lens, even uncountable)”. Further, in assay [2], the “Bacteria G + c … 24 hours-culture” value is reported as “G + c, + (1-9 bacteria per field of vision under oil-immersion lens)” and the “Bacteria G + c … 48 hours-culture” value was “G + c, + (1-9 bacteria per field of vision under oil-immersion lens)”. Further, in assay [3], the “Bacteria G − c … 24 hours-culture” value is given as “G − c, − (No or less than one bacterium per field of version under oil-immersion lens)” and the “Bacteria G − c … 48 hours-culture” value is “G − c, − (No or less than one bacterium per field of version under oil-immersion lens)”. For the same compound, in assay [4], the “Bacteria G − b … 24 hours-culture” value is reported as “G − b, + (1-9 bacteria per field of vision under oil-immersion lens)” and the “Bacteria G − b … 48 hours-culture” value was “G − b, ++ (About 10-99 bacteria per field of vision under oil-immersion lens)”. In assay [5], the “pH, 24 hours-culture” value amounted to 4.8 and the “pH, 48 hours-culture” value was 4.6-4.8.

dextrin: in assay [1], the “Bacteria G + b … 24 hours-culture” value is recorded as “G + b, +++ (About 100 bacteria or more per field vision under oil-immersion lens, even uncountable)” and the “Bacteria G + b … 48 hours-culture” value is “G + b, ++ (About 10-99 bacteria per field of vision under oil-immersion lens)”. Besides, in assay [2], the “Bacteria G + c … 24 hours-culture” value is “G + c, + (1-9 bacteria per field of vision under oil-immersion lens)” and the “Bacteria G + c … 48 hours-culture” value is “G + c, − (No or less than one bacterium per field of version under oil-immersion lens)”. For the same compound, in assay [3], the “Bacteria G − c … 24 hours-culture” value is “G − c, − (No or less than one bacterium per field of version under oil-immersion lens)” and the “Bacteria G − c … 48 hours-culture” value is reported as “G − c, − (No or less than one bacterium per field of version under oil-immersion lens)”. In addition, in assay [4], the “Bacteria G − b … 24 hours-culture” value is “G − b, ++ (About 10-99 bacteria per field of vision under oil-immersion lens)” and the “Bacteria G − b … 48 hours-culture” value is given as “G − b, + (1-9 bacteria per field of vision under oil-immersion lens)”. Also, in assay [5], the “pH, 24 hours-culture” value turned out to be 6.2 and the “pH, 48 hours-culture” value is reported as 5.8.

For the compound glycogen, in assay [1], the “Bacteria G + b … 24 hours-culture” value is reported as “G + b, ++ (About 10-99 bacteria per field of vision under oil-immersion lens)” and the “Bacteria G + b … 48 hours-culture” value is given as “G + b, +++ (About 100 bacteria or more per field vision under oil-immersion lens, even uncountable)”. Besides, in assay [2], the “Bacteria G + c … 24 hours-culture” value is “G + c, + (1-9 bacteria per field of vision under oil-immersion lens)” and the “Bacteria G + c … 48 hours-culture” value is reported as “G + c, + (1-9 bacteria per field of vision under oil-immersion lens)”. For the same compound, in assay [3], the “Bacteria G − c … 24 hours-culture” value is “G − c, − (No or less than one bacterium per field of version under oil-immersion lens)” and the “Bacteria G − c … 48 hours-culture” value is on record as “G − c, − (No or less than one bacterium per field of version under oil-immersion lens)”. Moreover, in assay [4], the “Bacteria G − b … 24 hours-culture” value was “G − b, ++ (About 10-99 bacteria per field of vision under oil-immersion lens)” and the “Bacteria G − b … 48 hours-culture” value is listed as “G − b, ++ (About 10-99 bacteria per field of vision under oil-immersion lens)”. Also, in assay [5], the “pH, 24 hours-culture” value is reported as 6.4 and the “pH, 48 hours-culture” value stood at 6.2.

In the case of starch, in assay [1], the “Bacteria G + b … 24 hours-culture” value is given as “G + b, ++ (About 10-99 bacteria per field of vision under oil-immersion lens)” and the “Bacteria G + b … 48 hours-culture” value was “G + b, ++ (About 10-99 bacteria per field of vision under oil-immersion lens)”. Moreover, in assay [2], the “Bacteria G + c … 24 hours-culture” value is reported as “G + c, + (1-9 bacteria per field of vision under oil-immersion lens)” and the “Bacteria G + c … 48 hours-culture” value is recorded as “G + c, + (1-9 bacteria per field of vision under oil-immersion lens)”. Besides, in assay [3], the “Bacteria G − c … 24 hours-culture” value is on record as “G − c, − (No or less than one bacterium per field of version under oil-immersion lens)” and the “Bacteria G − c … 48 hours-culture” value is recorded as “G − c, − (No or less than one bacterium per field of version under oil-immersion lens)”. Also, in assay [4], the “Bacteria G − b … 24 hours-culture” value is listed as “G − b, ++ (About 10-99 bacteria per field of vision under oil-immersion lens)” and the “Bacteria G − b … 48 hours-culture” value is reported as “G − b, ++ (About 10-99 bacteria per field of vision under oil-immersion lens)”. In assay [5], the “pH, 24 hours-culture” value is 6.7 and the “pH, 48 hours-culture” value turned out to be 6.2.

The record behind these values is US6964949B2, “Pharmaceutical compositions for promoting the growth of gram-positive bacilli and increasing the acidity in the vagina and the use thereof” (Shanghai Jiao Da Onlly Co., Ltd., priority 2000, dated 2005).
